“Also recorded” adds a separate entry of the source. One block for each molecule: values may come before it.
Assays:
Type in all cases: cell-based
rat I7 odorant receptor [1] = target: T1, rat I7 odorant receptor (Rattus norvegicus, UniProt P23270); assay: Electro-olfactogram (EOG) recording from AdexCAG-I7-IRES-GFP infected rat olfactory epithelium; details: for change of EOG odorant response in I7 virus infected vs uninfected animals: responses normalized to amyl acetate, panel of 74 odorants
T1 construct: expressed in transfected cells; host or cells: rat (Sprague-Dawley) olfactory sensory neurons infected in vivo with recombinant adenovirus AdexCAG-I7-IRES-GFP
T1 sequence (P23270 1-327): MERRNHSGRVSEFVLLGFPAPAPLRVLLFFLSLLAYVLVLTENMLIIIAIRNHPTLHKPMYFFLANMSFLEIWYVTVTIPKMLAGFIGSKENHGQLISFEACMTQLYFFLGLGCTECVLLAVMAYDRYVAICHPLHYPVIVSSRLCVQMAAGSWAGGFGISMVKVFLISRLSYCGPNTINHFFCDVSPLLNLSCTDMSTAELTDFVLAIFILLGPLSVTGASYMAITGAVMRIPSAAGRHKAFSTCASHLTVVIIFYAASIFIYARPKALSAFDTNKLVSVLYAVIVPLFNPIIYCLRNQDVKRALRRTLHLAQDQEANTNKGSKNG
Protocol: Rats (Sprague-Dawley) of various ages and both sexes were used for these experiments. Under anesthesia (ketamine, 90 mg/kg and xylazine, 10 mg/kg, i.p.), 30 μl of rat Ringer solution (in mM, 135, NaCl; 5, I(Cl; 1, CaCl2; 4, MgCl2; 10, HEPES; pH 7.4) containing the AdexCAG-I7-IRES-GFP at a titer of 3×10^9 pfu/ml, and 0.3% fast green dye was slowly injected through the nostril into the right side of the nasal cavity with a short length of thin plastic tubing. The solution was allowed to remain in the nasal cavity. After recovery, the animals were maintained at room temperature with no other treatment until sacrificed.
(§1) The animal was overdosed with anesthetics (Ketamine and xylazine) and decapitated. The head was cut open sagittally and the septum was removed to expose the medial surface of the olfactory turbinates (44 this reference is hereby incorporated by reference in its entirety). The right half of the head was mounted in a wax dish filled with rat Ringer. The medial surface of turbinates was face up and exposed to the air. A continuous stream of humidified clean air was gently blown on the turbinates through tubing to prevent tissue from drying. The opening of the tubing was 8 mm in diameter and placed approximately 10 mm from the turbinate surface.
Odorant solutions were prepared by diluting a 0.5 M stock in DMSO with water. All odorant chemicals were purchased from Aldrich, except Lyral and Lilial which were the kind gift of IFF and Harmon & Reimer Inc. Three milliliters of the odorant solution were placed in a 10 ml glass test tube and capped with a silicon stopper. The concentration of volatile odorant in the 7 cc airspace was allowed to equilibrate for more than 1 hour. All solutions were used within 8 hours. Two 18 gauge needles provided the input and output ports for the odorant containing vapor above the solution. For stimulation a 100 ms pulse of the odorant vapor at 9 psi was injected into the continuous stream of humidified air. The pulse was controlled by a Picospritzer solenoid controlled valve (General Valve). Amyl acetate was used as the reference odorant to control for the variability in responses between animals and during long recording sessions, and was delivered on every sixth trial of odorant stimulation. Three tubes of amyl acetate at 10^−3 M liquid concentration were used alternately in each experiment. The odorant stimulus pathway was cleaned by air between each stimulus presentation. The minimum interval between two adjacent stimuli was 1 minute.
The EOG recording electrode was an Ag/AgCl wire in a capillary glass pipette filled with rat Ringer solution containing 0.6% agarose. The electrode resistance was between 0.5 and 1 MΩ. The recording pipette was placed on the surface of the olfactory epithelium and connected to a differential amplifier (DP-301, Warner Instrument). Placement of the electrode was determined by visualizing GFP fluorescence with a modified stereomicroscope (Kramer Scientific). The EOG potential was observed on a chart recorder, recorded with a DAT tape recorder, and later transferred to computer. For most experiments two electrodes and two amplifiers were used to record EOGs from two different sites of epithelium simultaneously. All experiments were performed at room temperature (22-25° C.).
Odorants were prepared and applied in the following manner. Three milliliters of each odorant solution at a particular concentration were placed in a 10 ml test tube stoppered with a silicone cap, and left for one hour to allow the concentration of volatile odorant in the 7 cc airspace above the solution to equilibrate. Most of the odorants were prepared at a liquid concentration of 10^−2 M to 10^−3 M depending on their relative volatilities. Concentrations of stimulus produced at the olfactory epithelium could not be known, but the system reliably delivered the same amount of stimulus on each trial as there was little variability between responses to successive pulses of the same odorant. […]

rat olfactory epithelium = assay: EOG recording from control rat olfactory epithelium (uninfected or infected with GFP-only adenovirus)
Excerpt: as §1
Odorant solutions were prepared by diluting a 0.5 M stock in DMSO with water. All odorant chemicals were purchased from Aldrich, except Lyral and Lilial which were the kind gift of IFF and Harmon & Reimer Inc. Three milliliters of the odorant solution were placed in a 10 ml glass test tube and capped with a silicon stopper. […]
The EOG recording electrode was an Ag/AgCl wire in a capillary glass pipette filled with rat Ringer solution containing 0.6% agarose. […] Placement of the electrode was determined by visualizing GFP fluorescence with a modified stereomicroscope (Kramer Scientific). The EOG potential was observed on a chart recorder, recorded with a DAT tape recorder, and later transferred to computer. […]

rat I7 odorant receptor [2] = target: T1, rat I7 odorant receptor; assay: Whole-cell patch clamp recording from isolated GFP positive olfactory neurons infected by AdexCAG-I7-IRES-GFP
Protocol: Whole-cell patch clamp recording was performed on isolated cells with detectable fluorescence (FITC filter). Cell dissociation techniques for olfactory epithelium are described in detail elsewhere (45 this reference is hereby incorporated by reference in its entirety); for these experiments we included only papain treatment and mechanical disruption. Recordings were made with the Axopatch 1D amplifier. […] Data were acquired with the PULSE software (HEKA). Odorants were applied by a constant stream perfusion device (SF77, Warner Instruments) or by pressure pulse. The extracellular solution was the rat Ringer described above. All cells were tested to confirm that they had the normal voltage gated currents before investigating their odorant responses.
The holding potential was −60 mV. The currents varied from 60-250 pA in response to a 50 msec pulse of octanal at approximately 10−4 M, values that are within the range previously reported for rat olfactory neurons (28). […] The odorant induced current reversed around 0 mV.

Structure (SMILES): CCCCCCCCCC=O [decyl aldehyde]
change of EOG odorant response in I7 virus infected vs uninfected animals (rat I7 odorant receptor [1]): increased odorant response

Structure (SMILES): CCCCCCCC=O [octyl aldehyde]
difference in response magnitude (octyl aldehyde compared to amyl acetate) in infected versus control epithelia (rat I7 odorant receptor [1]; dose-response at various concentrations, FIG. 5c): ≤ 7 fold
relative EOG amplitude after moving electrode from high fluorescence to regions with little or no GFP expression (rat I7 odorant receptor [1]; infected animals): significantly reduced
response ratio of octyl aldehyde to amyl acetate (rat I7 odorant receptor [1]; infected animals, odorant concentration in solution 5×10^−5 M): 7 times
EOG response in animals with lower infection rates (rat I7 odorant receptor [1]; infection judged by extent of GFP fluorescence): comparably smaller
average EOG response in infected vs. uninfected animals (rat I7 odorant receptor [1]; normalized to amyl acetate, comparatively high odorant concentrations near saturation): 1.7 times
change of EOG odorant response in I7 virus infected vs uninfected animals (rat I7 odorant receptor [1]): dramatically greater; also recorded: increased odorant response
EOG response in animals infected with adenovirus containing only the GFP gene (rat olfactory epithelium; GFP-only adenovirus, same CAG promoter, compared with uninfected animals): not different from uninfected animals
response ratio of octyl aldehyde to amyl acetate (rat olfactory epithelium; normal (uninfected) animals, 5×10^−5 M in solution): 1
reversal potential of odorant induced current (rat I7 odorant receptor [2]): around 0 mV
latency of odorant induced current (rat I7 odorant receptor [2]; 50 msec pulse at approximately 10−4 M): 100 to 250 ms
odorant induced current (rat I7 odorant receptor [2]; 50 msec pulse at approximately 10−4 M, holding potential −60 mV): 60-250 pA
cells with odorant induced current (rat I7 odorant receptor [2]; isolated GFP positive neurons): 5 of 5

Structure (SMILES): CCCCCCCCCCC=O [undecylic aldehyde]
change of EOG odorant response in I7 virus infected vs uninfected animals (rat I7 odorant receptor [1]): not

change of EOG odorant response in I7 virus infected vs uninfected animals (rat I7 odorant receptor [1]): increased odorant response
Structure (SMILES): CCCCCCCCC=O [nonyl aldehyde]

Structure (SMILES): CCCCC/C=C/C=O [trans-2-octenal]
change of EOG odorant response in I7 virus infected vs uninfected animals (rat I7 odorant receptor [1]): failed to elicit responses larger than in normal animals

change of EOG odorant response in I7 virus infected vs uninfected animals (rat I7 odorant receptor [1]): not
Structure (SMILES): CCCCCC=O [hexaldehyde]

Structure (SMILES): CCCCCCC=O [heptaldehyde]
change of EOG odorant response in I7 virus infected vs uninfected animals (rat I7 odorant receptor [1]): increased odorant response

— patent publication US20020176820A1, “Functional expression of, and assay for, functional cellular receptors in vivo” (The Trustees of Columbia University, priority 1997, published 2002)
